Reference: PubChem BioAssay AID2060499 (Molecular Pharmacology Branch, DTP, NCI, 2025)

Tested on: 777334-354-R2-J4-PDC tumor spheroids with HUVEC/MSC, viability
Assay: Anticancer human tumor 777334-354-R2-J4-PDC patient-derived pancreatic adenocarcinoma cell line growth inhibition [GQUAD]
Conditions: for IC50: curve of first compound; for viability, T/C: stronger effect = lower value
How it was run: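 Viability of tumor cells grown as complex spheroids with endothelial and stromal cells, exposed to drug combinations. Top concentration at or near clinical Cmax (else 10 microM), diluted in half-log increments.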
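Note: spheroids exposed to compounds for 7 days before readout.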

## C=CC(=O)N1CCN(c2nc(=O)n(-c3c(C)ccnc3C(C)C)c3nc(-c4c(O)cccc4F)c(F)cc23)C(C)C1 (configuration not stated) + Cc1cnc(CNC(=O)c2c(=O)c3ccc(N4CCCN(C)CC4)nc3n3c2sc2ccccc23)cn1
Second compound 0.0316 µM
  IC50: > 10 µM
Second compound 0.1 µM
  IC50: > 10 µM
Second compound 0.316 µM
  IC50: > 10 µM
Second compound 1 µM
  IC50: > 10 µM
Second compound 3.16 µM
  IC50: > 10 µM
Second compound 10 µM
  IC50: > 10 µM
Second compound 0.0316 µM, first compound 0.0316 µM
  viability, T/C: 106%
Second compound 0.0316 µM, first compound 0.1 µM
  viability, T/C: 75.7%
Second compound 0.0316 µM, first compound 0.316 µM
  viability, T/C: 96.2%
Second compound 0.0316 µM, first compound 1 µM
  viability, T/C: 106%
Second compound 0.0316 µM, first compound 3.16 µM
  viability, T/C: 110%
Second compound 0.0316 µM, first compound 10 µM
  viability, T/C: 97.2%
Second compound 0.1 µM, first compound 0.0316 µM
  viability, T/C: 95.3%
Second compound 0.1 µM, first compound 0.1 µM
  viability, T/C: 79.4%
Second compound 0.1 µM, first compound 0.316 µM
  viability, T/C: 90.2%
Second compound 0.1 µM, first compound 1 µM
  viability, T/C: 89.9%
Second compound 0.1 µM, first compound 3.16 µM
  viability, T/C: 109%
Second compound 0.1 µM, first compound 10 µM
  viability, T/C: 81.2%
Second compound 0.316 µM, first compound 0.0316 µM
  viability, T/C: 81.2%
Second compound 0.316 µM, first compound 0.1 µM
  viability, T/C: 91.3%
Second compound 0.316 µM, first compound 0.316 µM
  viability, T/C: 87.7%
Second compound 0.316 µM, first compound 1 µM
  viability, T/C: 104%
Second compound 0.316 µM, first compound 3.16 µM
  viability, T/C: 90.7%
Second compound 0.316 µM, first compound 10 µM
  viability, T/C: 76.3%
Second compound 1 µM, first compound 0.0316 µM
  viability, T/C: 73.7%
Second compound 1 µM, first compound 0.1 µM
  viability, T/C: 74.1%
Second compound 1 µM, first compound 0.316 µM
  viability, T/C: 69.9%
Second compound 1 µM, first compound 1 µM
  viability, T/C: 81.4%
Second compound 1 µM, first compound 3.16 µM
  viability, T/C: 82.9%
Second compound 1 µM, first compound 10 µM
  viability, T/C: 71.5%
Second compound 3.16 µM, first compound 0.0316 µM
  viability, T/C: 61.8%
Second compound 3.16 µM, first compound 0.1 µM
  viability, T/C: 60.8%
Second compound 3.16 µM, first compound 0.316 µM
  viability, T/C: 62.5%
Second compound 3.16 µM, first compound 1 µM
  viability, T/C: 66.8%
Second compound 3.16 µM, first compound 3.16 µM
  viability, T/C: 76.9%
Second compound 3.16 µM, first compound 10 µM
  viability, T/C: 55.3%
Second compound 10 µM, first compound 0.0316 µM
  viability, T/C: 56.6%
Second compound 10 µM, first compound 0.1 µM
  viability, T/C: 55.3%
Second compound 10 µM, first compound 0.316 µM
  viability, T/C: 58.6%
Second compound 10 µM, first compound 1 µM
  viability, T/C: 70%
Second compound 10 µM, first compound 3.16 µM
  viability, T/C: 64.5%
Second compound 10 µM, first compound 10 µM
  viability, T/C: 49.9%
